Measurements reported in patent US20250114374A1, “BCL-2 INHIBITORS” (Newave Pharmaceutical Inc., priority 2021, published 2025).
Read-outs that look alike come from different tables or passages of the source.

Test system: RS4; 11 with G101V mutation
Assay: In vitro anti-proliferation assay (ATPlite luminescence) in BCL-2-dependent ALL cell line RS4;11 with G101V mutation
Assay type: cell-based
Conditions: read-out: RS411-G101V IC50
Outline: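 RS4;11 G101V cells at about 1×10^4 per well were exposed to a range of compound concentrations for about 72 h in medium with 10% FBS. Cellular ATP was measured by ATPlite luminescence after lysis, and IC50 was derived from the dose-response.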

[1] = cellular anti-proliferative IC50, about 72 hours, medium with 10% FBS, ATPlite

Compound | IC50 (Homo sapiens, RS4-11, 72 h) [µM] | IC50 [1] [µM]
CC(C)c1ccccc1[C@@H]1CN(Cc2ccc(F)c(F)c2)CCN1C1CC2(CCN(c3ccc(C(=O)NS(=O)(=O)c4cc5c(c([N+](=O)[O-])c4)N[C@H](C4CCOCC4)CO5)c(N4c5cc6cc[nH]c6nc5O[C@H]5COCC[C@@H]54)c3)CC2)C1 [Example 180, 4-{2-[(2R)-4-[(3,4-difluorophenyl)methyl]-2-(2-isopropylphenyl)piperazin-1-yl]-7-azaspiro[3.5]nonan-7-yl}-2-[(3R,8S)-2,5-dioxa-9,15,17-triazatetracyclo[8.7.0.0^{3,8}.0^{12,16}]heptadeca-1(10),11,13,16-tetraen-9-yl]-N-[(3R)-5-nitro-3-(oxan-4-yl)-3,4-dihydro-2H-1,4-benzoxazin-7-ylsulfonyl]benzamide] |  | 0.0075
Cc1ccccc1[C@@H]1CN(C2CCOCC2)CCN1C1CC2(CCN(c3ccc(C(=O)NS(=O)(=O)c4cc5c(c([N+](=O)[O-])c4)N[C@H](C4CCOCC4)CO5)c(N4c5cc6cc[nH]c6nc5O[C@H]5COCC[C@@H]54)c3)CC2)C1 [Example 183, N—(((R)-5-nitro-3-(tetrahydro-2H-pyran-4-yl)-3,4-dihydro-2H-benzo[b][1,4]oxazin-7-yl)sulfonyl)-2-((5aS,9aR)-6,7,9,9a-tetrahydro-1H-pyrano[3,4-b]pyrrolo[3′,2′:5,6]pyrido[3,2-e][1,4]oxazin-5(5aH)-yl)-4-(2-((R)-4-(tetrahydro-2H-pyran-4-yl)-2-(o-tolyl)piperazin-1-yl)-7-azaspiro[3.5]nonan-7-yl)benzamide] | 0.0733 | 
Cc1ccccc1[C@@H]1CN(CC2CCOCC2)CCN1C1CC2(CCN(c3ccc(C(=O)NS(=O)(=O)c4cc5c(c([N+](=O)[O-])c4)N[C@H](C4CCOCC4)CO5)c(N4c5cc6cc[nH]c6nc5O[C@H]5COCC[C@@H]54)c3)CC2)C1 [Example 184, 2-[(3R,8S)-2,5-dioxa-9,15,17-triazatetracyclo[8.7.0.0^{3,8}.0^{12,16}]heptadeca-1(10),11,13,16-tetraen-9-yl]-4-{2-[(2R)-2-(2-methylphenyl)-4-(oxan-4-ylmethyl)piperazin-1-yl]-7-azaspiro[3.5]nonan-7-yl}-N-[(3R)-5-nitro-3-(oxan-4-yl)-3,4-dihydro-2H-1,4-benzoxazin-7-ylsulfonyl]benzamide] |  | 0.0406

The next lines start with results.

IC50 (Homo sapiens, RS4-11, 72 h) [µM] | Compound | IC50 [1] [µM]
0.0096 | CC(C)Oc1ccccc1[C@@H]1CN(Cc2ccc(F)c(F)c2)CCN1C1CC2(CCN(c3ccc(C(=O)NS(=O)(=O)c4cc5c(c([N+](=O)[O-])c4)N[C@H](C4CCOCC4)CO5)c(N4c5cc6cc[nH]c6nc5O[C@H]5COCC[C@@H]54)c3)CC2)C1 [Example 181, 4-(2-((R)-4-(3,4-difluorobenzyl)-2-(2-isopropoxyphenyl)piperazin-1-yl)-7-azaspiro[3.5]nonan-7-yl)-N-(((R)-5-nitro-3-(tetrahydro-2H-pyran-4-yl)-3,4-dihydro-2H-benzo[b][1,4]oxazin-7-yl)sulfonyl)-2-((5aS,9aR)-6,7,9,9a-tetrahydro-1H-pyrano[3,4-b]pyrrolo[3′,2′:5,6]pyrido[3,2-e][1,4]oxazin-5(5aH)-yl)benzamide] | 
0.0581 | CC(C)Oc1ccccc1[C@@H]1CN(C2CCOCC2)CCN1C1CC2(CCN(c3ccc(C(=O)NS(=O)(=O)c4cc5c(c([N+](=O)[O-])c4)N[C@H](C4CCOCC4)CO5)c(N4c5cc6cc[nH]c6nc5O[C@H]5COCC[C@@H]54)c3)CC2)C1 [Example 182, 4-(2-((R)-2-(2-isopropoxyphenyl)-4-(tetrahydro-2H-pyran-4-yl)piperazin-1-yl)-7-azaspiro[3.5]nonan-7-yl)-N-(((R)-5-nitro-3-(tetrahydro-2H-pyran-4-yl)-3,4-dihydro-2H-benzo[b][1,4]oxazin-7-yl)sulfonyl)-2-((5aS,9aR)-6,7,9,9a-tetrahydro-1H-pyrano[3,4-b]pyrrolo[3′,2′:5,6]pyrido[3,2-e][1,4]oxazin-5(5aH)-yl)benzamide] | 
